The procedure of data set [1]:
(§1) Identical samples were prepared with 0.5 g/L EDTA added as preservative). These aliquots were quantified by HPLC, alongside aliquots of the formulation (both with and without EDTA) treated in the same manner, which were dissolved in ethanol immediately before quantification.
(§2) The column was a YMC-Pack Pro C18 column (3 µm particle size, 120 Å pore size, 4.6 x 150 mm) and mobile phase was 30 mM potassium phosphate, 0.16% trimethylamine, adjusted to pH 4.9 with phosphoric acid, 30% Acetonitrile.
(§3) “Fridge” samples stored at 4° C., “Heat” at 40° C., “Light” on bench in clear vials. An “E” after the storage condition indicates samples with 5 g/L EDTA added as preservative.

A short description of data set [2]: Stability of drugs in the anesthetic formulation (HPLC). Format: physicochemical. As to conditions: eutectic emulsion formulation. As for the experimental part:
as §1, §2, §3

Data set [3] is described as follows: In vitro dissolution testing of LBB-111 (release into PBS from 3D printed socket). Type of data set: physicochemical. As to conditions: from LBB-111; PBS pH 7.4, 37° C. As for the experimental part:
As a first step to approximate release properties of LBB-111, we performed in vitro dissolution testing under various conditions. […] Mixing was accomplished using the smaller “mini” spin paddles at 59 rpm. Dissolution media [900 mL Phosphate buffered saline (PBS), pH 7.4] was equilibrated at 37° C. overnight before the start of a run. To mimic a human molar socket, cylindrical chambers with internal dimensions approximately 1 cm tall and 1 cm in diameter, with a high infill base to give the socket weight and stability were 3D printed at the UNC BeAM […] using an Ultimaker 3. Sockets were filled to the rim with formulation using an 18 g needle, and the formulation weight (around 0.8 g for these sockets) was recorded. The flat base of the socket was placed on the bottom of each dissolution chamber and mixing initiated. […] Referring now to FIG. 6, the graph illustrates drug released into PBS medium plotted as the fraction of the total that was present in the formulation at the start (% released). […] Formulation samples were dissolved in 19-times their weight (final conc. 5% wt) 200-proof ethanol, the ethanol dissolved samples were then diluted 5-fold into distilled water, and 10 μL of this dilution was injected.

The conditions of data set [4]: cited from earlier work; for logD7.4: pH 7.4.
For data set [5] the following is noted: local anesthetic activity profile; cited from earlier work.
Data set [6] is described as follows: Partitioning of small molecules between aqueous phase and oily eutectic. Type of data set: physicochemical. The conditions noted are these: after 10 minutes of mixing; 0.5 g/L bupivacaine-HCl, 5 g/L chlorobutanol, 25 g/L benzyl alcohol.

Structures are written as SMILES. Counter-ions that a name gives are not always drawn.

The term pKa denotes the pH at which an ionisable group is half protonated. Take `CCOC(=O)c1ccc(N)cc1` [Benzocaine]: the degradation in solution result in data set [1] was “almost undetectable”. The “time to becoming undetectable in solution” value in data set [1] (saliva analogue buffer, light or heat (40° C.) conditions, without EDTA) was at most 10 days. Besides, the “degradation in the formulation without EDTA” value in data set [2] was “lack of benzocaine degradation”. In addition, the relative release rate result in data set [3] is on record as “fastest”. For the same compound, in data set [4], the pKa was 2.8 and the logD7.4 is 1.86. Moreover, in data set [5], the Duration result is given as “Short”, the Onset result is given as “Fast” and the Potency result is recorded as “Low”.

A word on the logP: it is a log measure of how a compound divides between an organic and an aqueous phase. Regarding `CCCCN1CCCCC1C(=O)Nc1c(C)cccc1C` (stereo not shown) [Bupivacaine], the relative release rate entry in data set [3] is recorded as “slowest”. In data set [4], the logP was 3.41 and the logD7.4 is on record as 2.39. Moreover, in data set [5], the Duration entry is recorded as “Long”, the Onset entry is given as “Moderate” and the Potency entry is on record as “High”.

Take `CCN(CC)CC(=O)Nc1c(C)cccc1C` [Lidocaine]: in data set [1], the degradation in solution result was “almost undetectable” and the “degradation in solution, Heat sample with EDTA” value is recorded as “some lidocaine degradation”. For the same compound, in data set [5], the Duration result is reported as “Moderate”, the Onset result is recorded as “Fast” and the Potency entry is on record as “Medium”.

Consider `OCc1ccccc1` [benzyl alcohol], for which the “presence in the aqueous phase after mixing with the eutectic” value in data set [6] is given as “undetectable”.

Turning to `CCCCN1CCCCC1C(=O)Nc1c(C)cccc1C` (stereo not shown) [bupivacaine-HCl, bupivacaine hydrochloride], in data set [6], the “presence in the aqueous phase after mixing with the eutectic” value is “undetectable”.

The values above are taken from patent publication US20230190650A1 (The University of North Carolina at Chapel Hill, priority 2020, published 2023).
